# Source: ChEMBL document CHEMBL1201862, “PubChem BioAssay data set” (2004)
#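 Briefly, cells in 96-well plates were exposed to five compound concentrations for 48 h, and endpoints were estimated by linear interpolation. At the GI50, growth is halved.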 Activity calls are given as the source filed them. Cut-off read from the data, not from the text of the source: active = GI50 up to about 1.1 µM and inactive = higher.
# Columns and labels:
# Assay in all cases: NCI tumour cell line growth inhibition, 48 h
# CAKI-1 = test system: CAKI-1
# K562 = test system: K562
# MOLT-4 = test system: MOLT-4
# SR = test system: SR
# SF-268 = test system: SF-268
# OVCAR-4 = test system: OVCAR-4
# OVCAR-8 = test system: OVCAR-8
# MCF7 = test system: MCF7
# HCT-116 = test system: HCT-116
# MDA-MB-231 = test system: MDA-MB-231
# M14 = test system: M14
# SF-539 = test system: SF-539
# SK-MEL-5 = test system: SK-MEL-5
# SW-620 = test system: SW-620
# DU-145 = test system: DU-145
# 786-0 = test system: 786-0
# PC-3 = test system: PC-3
# EKVX = test system: EKVX
# U-251 = test system: U-251
# SNB-75 = test system: SNB-75
Compound,GI50 (CAKI-1),GI50 (K562),GI50 (MOLT-4),GI50 (SR),GI50 (SF-268),GI50 (OVCAR-4),GI50 (OVCAR-8),GI50 (MCF7),GI50 (HCT-116),GI50 (MDA-MB-231),GI50 (M14),GI50 (SF-539),GI50 (SK-MEL-5),GI50 (SW-620),GI50 (DU-145),GI50 (786-0),GI50 (PC-3),GI50 (EKVX),GI50 (U-251),GI50 (SNB-75)
COC(=O)CNC(=O)C(CSC(=O)OCC1c2ccccc2-c2ccccc21)NC(=O)CCC(NC(=O)OCC1c2ccccc2-c2ccccc21)C(=O)OC (stereo not given),7.5 µM (inactive),28.7 µM (inactive),21.2 µM (inactive),12.6 µM (inactive),21.3 µM (inactive),16.9 µM (inactive),16.8 µM (inactive),18.5 µM (inactive),17.5 µM (inactive),16.6 µM (inactive),24 µM (inactive),19.2 µM (inactive),78.7 µM (inactive),55.2 µM (inactive),> 100 µM (inactive),13.7 µM (inactive),30.8 µM (inactive),54.3 µM (inactive),,
OC(COC(c1ccccc1)(c1ccccc1)c1ccccc1)C(O)CC1SCCS1 (stereo not given),21.3 µM (inactive),13.5 µM (inactive),8.91 µM (inactive),0.0275 µM (active),25.4 µM (inactive),,19.3 µM (inactive),21.3 µM (inactive),16.4 µM (inactive),16.2 µM (inactive),29.6 µM (inactive),18.7 µM (inactive),16.7 µM (inactive),29 µM (inactive),17.9 µM (inactive),17.6 µM (inactive),11.8 µM (inactive),11.2 µM (inactive),21.8 µM (inactive),
COC(=O)/C=C/[C@@H]1[C@H](C)N1S(=O)(=O)c1ccc(C)cc1 (stereo not given in full),> 100 µM (inactive),> 100 µM (inactive),> 100 µM (inactive),> 100 µM (inactive),> 100 µM (inactive),> 100 µM (inactive),> 100 µM (inactive),> 100 µM (inactive),> 100 µM (inactive),78.7 µM (inactive),> 100 µM (inactive),> 100 µM (inactive),> 100 µM (inactive),> 100 µM (inactive),> 100 µM (inactive),61.4 µM (inactive),> 100 µM (inactive),> 100 µM (inactive),> 100 µM (inactive),
COc1cc(/C=N\N(C)C)cc(/C=N/N(C)C)c1O,21.1 µM (inactive),,< 0.01 µM (active),12.5 µM (inactive),38.5 µM (inactive),49.2 µM (inactive),,> 100 µM (inactive),29.8 µM (inactive),25.8 µM (inactive),18.3 µM (inactive),6.03 µM (inactive),26.2 µM (inactive),46.7 µM (inactive),68.7 µM (inactive),24.4 µM (inactive),16.4 µM (inactive),,21.1 µM (inactive),
COc1ccc2c(c1)CC[C@@H]1C2CC[C@]2(C)OC(=O)CCC12 (stereo not given in full),31.6 µM (inactive),3.01 µM (inactive),> 100 µM (inactive),5.12 µM (inactive),12.1 µM (inactive),6.12 µM (inactive),14 µM (inactive),15 µM (inactive),8.89 µM (inactive),2.45 µM (inactive),13.2 µM (inactive),15.2 µM (inactive),12.6 µM (inactive),10.7 µM (inactive),43.6 µM (inactive),5.85 µM (inactive),12.6 µM (inactive),7.73 µM (inactive),6.87 µM (inactive),
O=[N+]([O-])c1ccc([I+]c2ccccc2)cc1,3.95 µM (inactive),4.19 µM (inactive),2.25 µM (inactive),2.53 µM (inactive),6.61 µM (inactive),4.33 µM (inactive),5.41 µM (inactive),4.97 µM (inactive),3.77 µM (inactive),3.95 µM (inactive),4.29 µM (inactive),7.11 µM (inactive),8.04 µM (inactive),4.49 µM (inactive),8.93 µM (inactive),4.26 µM (inactive),5.52 µM (inactive),15.7 µM (inactive),5.46 µM (inactive),
CCOC(=O)c1cc2c([nH]1)C(=O)CC1=C2CCN1Cc1ccccc1,3.46 µM (inactive),3.8 µM (inactive),4.06 µM (inactive),5.02 µM (inactive),21.3 µM (inactive),13.6 µM (inactive),23.1 µM (inactive),13.3 µM (inactive),13 µM (inactive),13.2 µM (inactive),,22.1 µM (inactive),,5.36 µM (inactive),15.2 µM (inactive),17.2 µM (inactive),20.5 µM (inactive),19.8 µM (inactive),12.5 µM (inactive),23.3 µM (inactive)
O=C1NC(=S)N/C1=C\c1ccc(Sc2ccccc2C(=O)O)s1,70.3 µM (inactive),93.5 µM (inactive),> 100 µM (inactive),> 100 µM (inactive),> 100 µM (inactive),> 100 µM (inactive),> 100 µM (inactive),> 100 µM (inactive),> 100 µM (inactive),> 100 µM (inactive),,,> 100 µM (inactive),> 100 µM (inactive),> 100 µM (inactive),> 100 µM (inactive),> 100 µM (inactive),> 100 µM (inactive),> 100 µM (inactive),> 100 µM (inactive)
